The values below come from US20220249401A1, “DIETARY SUPPLEMENT FORMULATED BASED ON ALL-TRANS FORM OF MENAQUINONE-7” (NUTRIOMICS LIMITED, priority 2021, published 2022).

This assay concerns MGP. Description: MGP gene expression in chondrocyte cells treated with trans form of MK7. The assay is classed as cell-based. To be noted: Chondrocyte cells treated with 0.01% (w/w) trans form of MK7; mRNA encoding MGP, relative to control conditions. As to the method: Example 2—The role of the trans form of MK7 in expression of MGP was measured as compared to control samples. Chondrocyte cells were treated with 0.01% (w/w) trans form of vitamin MK7 and results were reported as fold change in gene expression relative to control conditions.
MGP expression was elevated by 21% in the presence of trans form of MK7 as compared to the control samples as can be concluded from FIG. 2. […] MGP gene expression found to actively be regulated in the presence of trans form of MK7.

In the case of `CC(C)=CCC/C(C)=C/CC/C(C)=C/CC/C(C)=C/CC/C(C)=C/CC/C(C)=C/CC/C(C)=C/CC1=C(C)C(=O)c2ccccc2C1=O` [trans form of MK7, all-trans form of Menaquinone-7], the “MGP expression elevated as compared to the control samples” value amounted to 21%.
